Measurements taken from US10040781B2, “Tank-binding kinase inhibitor compounds” (Gilead Sciences, Inc., priority 2014, dated 2018).
pIC50: −log10 of the molar value.

What was measured:
IKKε = IKKε (Homo sapiens (Human), UniProt Q14164); experiment: IKKε TR-FRET enzymatic assay; assay type: biochemical; conditions: read-out: IKKe IC50
hJAK2 = hJAK2 (Homo sapiens (Human), UniProt O60674); experiment: hJAK2 LANCE TR-FRET enzymatic assay; assay type: biochemical; conditions: read-out: JAK2 IC50
TBK1 = TBK1 (Homo sapiens (Human), UniProt Q9UHD2); experiment: TBK1 TR-FRET enzymatic assay;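 also: phosphorylation of a biotinylated Ser/Thr peptide by purified full-length recombinant TBK1, read by TR-FRET after 240 min at 25 °C, IC50 is the geometric mean of at least four runs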
TBK1, sequence (Q9UHD2 whole entry): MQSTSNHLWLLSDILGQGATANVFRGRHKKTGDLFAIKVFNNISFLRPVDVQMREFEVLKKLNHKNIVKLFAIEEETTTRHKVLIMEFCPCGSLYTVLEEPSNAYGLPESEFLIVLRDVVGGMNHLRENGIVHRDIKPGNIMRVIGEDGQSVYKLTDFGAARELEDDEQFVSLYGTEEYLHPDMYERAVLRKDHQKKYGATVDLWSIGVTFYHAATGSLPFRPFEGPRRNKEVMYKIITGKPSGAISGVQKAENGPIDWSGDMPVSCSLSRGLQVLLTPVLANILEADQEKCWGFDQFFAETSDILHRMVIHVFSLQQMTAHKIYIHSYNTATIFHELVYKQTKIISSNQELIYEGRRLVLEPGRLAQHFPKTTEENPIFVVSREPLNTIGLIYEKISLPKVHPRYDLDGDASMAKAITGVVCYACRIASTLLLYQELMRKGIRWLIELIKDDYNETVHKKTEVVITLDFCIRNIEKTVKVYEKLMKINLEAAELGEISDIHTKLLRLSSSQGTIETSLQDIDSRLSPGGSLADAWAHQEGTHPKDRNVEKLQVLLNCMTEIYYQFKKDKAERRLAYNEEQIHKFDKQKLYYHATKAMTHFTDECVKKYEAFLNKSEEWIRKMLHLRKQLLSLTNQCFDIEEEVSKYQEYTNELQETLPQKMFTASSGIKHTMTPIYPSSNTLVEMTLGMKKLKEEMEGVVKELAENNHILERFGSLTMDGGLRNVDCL

IKKε, sequence (Q14164 whole entry): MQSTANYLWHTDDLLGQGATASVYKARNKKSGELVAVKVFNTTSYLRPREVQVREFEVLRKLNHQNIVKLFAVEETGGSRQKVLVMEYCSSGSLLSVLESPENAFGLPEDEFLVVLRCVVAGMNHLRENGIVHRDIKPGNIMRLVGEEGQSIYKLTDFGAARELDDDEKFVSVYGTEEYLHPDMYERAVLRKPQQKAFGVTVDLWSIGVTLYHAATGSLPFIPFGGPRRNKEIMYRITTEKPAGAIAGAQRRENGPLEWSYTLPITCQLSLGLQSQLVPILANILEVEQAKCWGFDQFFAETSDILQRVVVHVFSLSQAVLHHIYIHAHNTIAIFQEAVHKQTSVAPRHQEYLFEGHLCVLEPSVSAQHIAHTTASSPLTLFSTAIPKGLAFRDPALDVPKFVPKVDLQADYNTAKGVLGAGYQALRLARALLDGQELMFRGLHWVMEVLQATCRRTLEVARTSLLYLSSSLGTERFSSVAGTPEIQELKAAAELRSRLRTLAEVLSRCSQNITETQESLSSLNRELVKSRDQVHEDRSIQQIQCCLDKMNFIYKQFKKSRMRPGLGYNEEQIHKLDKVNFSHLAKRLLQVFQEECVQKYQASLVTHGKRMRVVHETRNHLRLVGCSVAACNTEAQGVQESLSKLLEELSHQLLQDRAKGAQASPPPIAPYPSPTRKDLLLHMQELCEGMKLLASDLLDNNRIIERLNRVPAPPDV
hJAK2, sequence (O60674 whole entry): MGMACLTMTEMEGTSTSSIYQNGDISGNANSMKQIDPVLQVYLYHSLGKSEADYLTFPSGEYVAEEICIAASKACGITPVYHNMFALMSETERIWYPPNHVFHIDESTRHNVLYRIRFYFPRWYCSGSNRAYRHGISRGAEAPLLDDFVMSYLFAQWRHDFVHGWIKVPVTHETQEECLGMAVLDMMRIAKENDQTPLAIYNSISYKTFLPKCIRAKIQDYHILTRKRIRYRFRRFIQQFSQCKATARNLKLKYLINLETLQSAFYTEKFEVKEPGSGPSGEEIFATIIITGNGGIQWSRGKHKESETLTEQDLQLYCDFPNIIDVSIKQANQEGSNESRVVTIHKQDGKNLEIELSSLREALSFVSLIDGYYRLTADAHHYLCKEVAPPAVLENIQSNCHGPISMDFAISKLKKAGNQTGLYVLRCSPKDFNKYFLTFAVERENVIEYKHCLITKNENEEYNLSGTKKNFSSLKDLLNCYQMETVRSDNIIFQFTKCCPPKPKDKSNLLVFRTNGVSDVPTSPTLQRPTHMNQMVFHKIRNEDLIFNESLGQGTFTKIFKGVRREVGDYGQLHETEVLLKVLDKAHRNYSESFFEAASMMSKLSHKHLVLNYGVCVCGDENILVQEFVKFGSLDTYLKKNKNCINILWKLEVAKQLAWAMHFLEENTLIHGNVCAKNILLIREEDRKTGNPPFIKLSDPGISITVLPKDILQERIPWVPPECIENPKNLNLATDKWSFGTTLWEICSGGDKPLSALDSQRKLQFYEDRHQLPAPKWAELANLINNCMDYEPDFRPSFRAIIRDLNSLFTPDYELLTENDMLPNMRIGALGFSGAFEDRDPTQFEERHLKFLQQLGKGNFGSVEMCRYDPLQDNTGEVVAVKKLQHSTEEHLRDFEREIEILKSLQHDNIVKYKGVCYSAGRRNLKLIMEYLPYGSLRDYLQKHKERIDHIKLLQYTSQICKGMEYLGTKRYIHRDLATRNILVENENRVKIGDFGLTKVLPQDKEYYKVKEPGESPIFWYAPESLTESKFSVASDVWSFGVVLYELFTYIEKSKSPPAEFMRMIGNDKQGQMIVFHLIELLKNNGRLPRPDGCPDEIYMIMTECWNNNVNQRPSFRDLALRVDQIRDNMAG

Row | Structure (SMILES) | pIC50 (IKKε) | pIC50 (hJAK2) | pIC50 (TBK1)
1 | C[C@H](O)C(=O)N1CC[C@H](Oc2c(F)cc(-c3ncnc(Nc4ccc(N5CCN(C6COC6)CC5)cc4)n3)cc2C#N)[C@H](F)C1 [Example 328, 3-fluoro-2-(((3R,4S)-3-fluoro-1-((S)-2-hydroxypropanoyl)piperidin-4-yl)oxy)-5-(4-((4-(4-(oxetan-3-yl)piperazin-1-yl)phenyl)amino)-1,3,5-triazin-2-yl)benzonitrile] | 8.40 | ≤ 6.00 | 8.40
2 | N#Cc1cc(-c2ncnc(Nc3ccc(N4CCN(C5COC5)CC4)cc3)n2)cc(F)c1O[C@H]1CCN(C(=O)CO)C[C@H]1F [Example 329, 3-fluoro-2-(((3R,4S)-3-fluoro-1-(2-hydroxyacetyl)piperidin-4-yl)oxy)-5-(4-((4-(4-(oxetan-3-yl)piperazin-1-yl)phenyl)amino)-1,3,5-triazin-2-yl)benzonitrile] | 8.52 | 6.19 | 8.40
3 | N#CCC(=O)N1CC[C@H](Oc2c(F)cc(-c3ncnc(Nc4ccc(N5CCN(C6COC6)CC5)cc4)n3)cc2C#N)[C@H](F)C1 [Example 330, 2-(((3R,4S)-1-(2-cyanoacetyl)-3-fluoropiperidin-4-yl)oxy)-3-fluoro-5-(4-((4-(4-(oxetan-3-yl)piperazin-1-yl)phenyl)amino)-1,3,5-triazin-2-yl)benzonitrile] | 8.22 | 6.03 | 8.40
4 | N#Cc1cc(-c2ncnc(Nc3ccc(N4CCN(C5COC5)CC4)cc3)n2)cc(F)c1O[C@H]1CCN(C(=O)CCO)C[C@H]1F [Example 331, 3-fluoro-2-(((3R,4S)-3-fluoro-1-(3-hydroxypropanoyl)piperidin-4-yl)oxy)-5-(4-((4-(4-(oxetan-3-yl)piperazin-1-yl)phenyl)amino)-1,3,5-triazin-2-yl)benzonitrile] | 7.85 | 6.03 | 8.15
5 | N#Cc1cc(-c2ncnc(Nc3ccc(OCCN4CCCC4)cc3)n2)ccc1OC1CCOCC1 [Example 332, 5-(4-((4-(2-(pyrrolidin-1-yl)ethoxy)phenyl)amino)-1,3,5-triazin-2-yl)-2-((tetrahydro-2H-pyran-4-yl)oxy)benzonitrile] | 8.30 | 6.03 | 8.00
6 | N#Cc1cc(-c2ncnc(Nc3ccc(N4CCN(C5COC5)CC4)cc3)n2)ccc1O[C@H]1CCN(C(=O)[C@@H]2COC(=O)N2)C[C@H]1F [Example 333, 2-(((3R,4S)-3-fluoro-1-((S)-2-oxooxazolidine-4-carbonyl)piperidin-4-yl)oxy)-5-(4-((4-(4-(oxetan-3-yl)piperazin-1-yl)phenyl)amino)-1,3,5-triazin-2-yl)benzonitrile] | 8.52 | 6.63 | 8.70
7 | N#Cc1cc(-c2ncnc(Nc3ccc(N4CCN(C5COC5)CC4)cc3)n2)ccc1O[C@H]1CCN(C(=O)c2nc(N)n[nH]2)C[C@H]1F [Example 334, 2-(((3R,4S)-1-(3-amino-1H-1,2,4-triazole-5-carbonyl)-3-fluoropiperidin-4-yl)oxy)-5-(4-((4-(4-(oxetan-3-yl)piperazin-1-yl)phenyl)amino)-1,3,5-triazin-2-yl)benzonitrile] | 8.70 | 7.10 | 7.80
8 | CC(=O)N[C@@H](C)C(=O)N1CC[C@H](Oc2ccc(-c3ncnc(Nc4ccc(N5CCN(C6COC6)CC5)cc4)n3)cc2C#N)[C@H](F)C1 [Example 335, N—((S)-1-((3R,4S)-4-(2-cyano-4-(4-((4-(4-(oxetan-3-yl)piperazin-1-yl)phenyl)amino)-1,3,5-triazin-2-yl)phenoxy)-3-fluoropiperidin-1-yl)-1-oxopropan-2-yl)acetamide] | 6.08 | 6.32 | 6.29
9 | N#Cc1cc(-c2ncnc(Nc3ccc(N4CCN(C5COC5)CC4)cc3)n2)ccc1O[C@H]1CCN(C(=O)c2ccncn2)C[C@H]1F [Example 337, 2-(((3R,4S)-3-fluoro-1-(pyrimidine-4-carbonyl)piperidin-4-yl)oxy)-5-(4-((4-(4-(oxetan-3-yl)piperazin-1-yl)phenyl)amino)-1,3,5-triazin-2-yl)benzonitrile] | 8.15 | 6.24 | 8.40
10 | N#Cc1cc(-c2ncnc(Nc3ccc(N4CCN(C5COC5)CC4)cc3)n2)ccc1O[C@H]1CCN(C(=O)c2ccnnc2)C[C@H]1F [Example 338, 2-(((3R,4S)-3-fluoro-1-(pyridazine-4-carbonyl)piperidin-4-yl)oxy)-5-(4-((4-(4-(oxetan-3-yl)piperazin-1-yl)phenyl)amino)-1,3,5-triazin-2-yl)benzonitrile] | 7.74 | 6.88 | 8.05
11 | N#Cc1cc(-c2ncnc(Nc3ccc(N4CCN(C5COC5)CC4)cc3)n2)ccc1O[C@H]1CCN(C(=O)c2nccnc2N)C[C@H]1F [Example 339, 2-(((3R,4S)-1-(3-aminopyrazine-2-carbonyl)-3-fluoropiperidin-4-yl)oxy)-5-(4-((4-(4-(oxetan-3-yl)piperazin-1-yl)phenyl)amino)-1,3,5-triazin-2-yl)benzonitrile] | 7.24 | 7.27 | 7.85
12 | N#Cc1cc(-c2ncnc(Nc3ccc(N4CCN(C5COC5)CC4)cc3)n2)ccc1O[C@H]1CCN(C(=O)c2cncc(N)n2)C[C@H]1F [Example 340, 2-(((3R,4S)-1-(6-aminopyrazine-2-carbonyl)-3-fluoropiperidin-4-yl)oxy)-5-(4-((4-(4-(oxetan-3-yl)piperazin-1-yl)phenyl)amino)-1,3,5-triazin-2-yl)benzonitrile] | 8.05 | 6.91 | 8.40
13 | C[C@H](O)C(=O)N1CC[C@H](Oc2ccc(-c3ncnc(Nc4ccc(N5CC(C)(O)C5)cc4)n3)cc2C#N)[C@H](F)C1 [Example 342, 2-(((3R,4S)-3-fluoro-1-((S)-2-hydroxypropanoyl)piperidin-4-yl)oxy)-5-(4-((4-(3-hydroxy-3-methylazetidin-1-yl)phenyl)amino)-1,3,5-triazin-2-yl)benzonitrile] | 9.00 | 6.30 | 8.70
14 | Cn1ncc2ccc(Nc3ncnc(-c4ccc(O[C@H]5CCN(C(=O)CO)C[C@H]5F)c(C#N)c4)n3)cc21 [Example 343, 2-(((3R,4S)-3-fluoro-1-(2-hydroxyacetyl)piperidin-4-yl)oxy)-5-(4-((1-methyl-1H-indazol-6-yl)amino)-1,3,5-triazin-2-yl)benzonitrile] | 8.70 | 6.59 | 8.40
15 | C[C@H](O)C(=O)N1CC[C@H](Oc2ccc(-c3ncnc(Nc4ccc5cnn(C)c5c4)n3)cc2C#N)[C@H](F)C1 [Example 344, 2-(((3R,4S)-3-fluoro-1-((S)-2-hydroxypropanoyl)piperidin-4-yl)oxy)-5-(4-((1-methyl-1H-indazol-6-yl)amino)-1,3,5-triazin-2-yl)benzonitrile] | 8.30 | 6.15 | 8.15
16 | Cc1nn(C)c2cc(Nc3ncnc(-c4ccc(O[C@H]5CCN(C(=O)CO)C[C@H]5F)c(C#N)c4)n3)ccc12 [Example 346, 5-(4-((1,3-dimethyl-1H-indazol-6-yl)amino)-1,3,5-triazin-2-yl)-2-(((3R,4S)-3-fluoro-1-(2-hydroxyacetyl)piperidin-4-yl)oxy)benzonitrile] | 9.00 | 6.29 | 8.52
17 | Cc1nn(C)c2cc(Nc3ncnc(-c4ccc(O[C@H]5CCN(C(=O)[C@H](C)O)C[C@H]5F)c(C#N)c4)n3)ccc12 [Example 347, 5-(4-((1,3-dimethyl-1H-indazol-6-yl)amino)-1,3,5-triazin-2-yl)-2-(((3R,4S)-3-fluoro-1-((S)-2-hydroxypropanoyl)piperidin-4-yl)oxy)benzonitrile] | 8.30 | ≤ 6.00 | 8.40
18 | N#Cc1cc(-c2ncnc(Nc3ccc(N4CCN(C5COC5)CC4)cc3)n2)ccc1O[C@H]1CCN(C(=O)C(O)CO)C[C@H]1F (stereo partly drawn) [Example 348, 2-(((3R,4S)-1-(2,3-dihydroxypropanoyl)-3-fluoropiperidin-4-yl)oxy)-5-(4-((4-(4-(oxetan-3-yl)piperazin-1-yl)phenyl)amino)-1,3,5-triazin-2-yl)benzonitrile] | 8.52 | 6.79 | 8.40
19 | CC(C)n1cc(Nc2ncnc(-c3ccc(O[C@H]4CCN(C(=O)CO)C[C@H]4F)c(C#N)c3)n2)cn1 [Example 349, 2-(((3R,4S)-3-fluoro-1-(2-hydroxyacetyl)piperidin-4-yl)oxy)-5-(4-((1-isopropyl-1H-pyrazol-4-yl)amino)-1,3,5-triazin-2-yl)benzonitrile] | 8.70 | 7.01 | 8.70
20 | CC(C)n1cc(Nc2ncnc(-c3ccc(O[C@H]4CCN(C(=O)[C@H](C)O)C[C@H]4F)c(C#N)c3)n2)cn1 [Example 350, 2-(((3R,4S)-3-fluoro-1-((S)-2-hydroxypropanoyl)piperidin-4-yl)oxy)-5-(4-((1-isopropyl-1H-pyrazol-4-yl)amino)-1,3,5-triazin-2-yl)benzonitrile] | 8.30 | 6.64 | 8.52
21 | CCn1cc(Nc2ncnc(-c3ccc(O[C@H]4CCN(C(=O)[C@H](C)O)C[C@H]4F)c(C#N)c3)n2)cn1 [Example 351, 5-(4-((1-ethyl-1H-pyrazol-4-yl)amino)-1,3,5-triazin-2-yl)-2-(((3R,4S)-3-fluoro-1-((S)-2-hydroxypropanoyl)piperidin-4-yl)oxy)benzonitrile] | 8.05 | 6.18 | 8.22
22 | C[C@H](O)C(=O)N1CC[C@H](Oc2ccc(-c3ncnc(Nc4cnn(CC(F)F)c4)n3)cc2C#N)[C@H](F)C1 [Example 352, 5-(4-((1-(2,2-difluoroethyl)-1H-pyrazol-4-yl)amino)-1,3,5-triazin-2-yl)-2-(((3R,4S)-3-fluoro-1-((S)-2-hydroxypropanoyl)piperidin-4-yl)oxy)benzonitrile] | 8.40 | ≤ 6.00 | 8.40
